Laboratory results from patent US10836742B2, “N-substituted bicyclic lactams, their preparation and their use as pharmaceuticals” (NEOMED Institute, priority 2015, dated 2020).

How the values were obtained:
[1] = biological target: BRD4(BD1) (Homo sapiens (Human), UniProt O60885); experiment: In vitro bromodomain inhibition assay (AlphaLISA, H4-tetraacetyl peptide); assay type: binding; settings: His-tagged BRD4 BD1 200 nM, biotinylated H4-tetraacetyl peptide 200 nM
Method: a) In vitro Bromodomain Inhibition Assay
To measure activity of bromodomain inhibitors, a His-epitope tagged BRD4 BD149-170 is purchased from BPS Bioscience. BRD4 binding and inhibition is assessed by monitoring the engagement of biotinylated H4-tetraacetyl peptide (H4K5/8/12/16; AnaSpec #64989-025) with the target using the AlphaLISA technology (Perkin-Elmer). Specifically, in a 384 well OptiPlate, BRD4(BD1) (200 nM final) is pre-incubated with either DMSO (final 1.0% DMSO) or a compound dilution series in DMSO. All reagents are diluted in assay buffer containing 50 mM HEPES (pH 7.4), 100 mM NaCl, 0.1% (w/v) BSA, and 0.05% (w/v) CHAPS. After a 30 minute incubation at room temperature, H4 peptide is added (200 nM final) and the reaction is incubated an additional 30 minutes at room temperature. Alpha streptavidin donor beads and AlphaLISA nickel chelate acceptor beads are then added to a final concentration of 10 μg/mL each. After one hour, equilibration plates are read on an Envision instrument and IC50s calculated using a four parameter non-linear curve fit (results are shown in Table 2).

[2] = tested on: human C-Myc gene transcription in MV-4-11 cells; experiment: Transcription of human C-Myc in human leukemic MV-4-11 cells (QuantiGene 2.0); assay type: cell-based; settings: inhibition of C-Myc mRNA transcription, 4 hours treatment
Method: b) Transcription of Human C-Myc in Human Leukemic MV-4-11 Cells:
The effect of compounds on transcription of human C-Myc gene is monitored in human B-myelomonocytic leukemia cell line MV-4-11 (from American Type Culture Collection (ATCC), Manassas, Va., USA) using QuantiGene 2.0 assay kit (Affymetrix, Santa Clara, Calif., USA).
Typically, 8,000 MV-4-11 cells are plated in sterile 96-well plates (Costar #3598 from Fisher Scientific Canada, Ottawa, Ontario, Canada) in Iscove's medium supplemented with 10% fetal bovine serum, glutamine (2 mM), and penicillin (100 I.U.) and streptomycin (100 μg/mL) (all from Wisent Inc., St. Bruno, Quebec, Canada). Compounds are dissolved in DMSO at 30 mM. A series of 1:3 dilutions are first made in DMSO, and further 1:100 dilutions are made in serum-containing cell culture media. The final concentration of DMSO is 0.1% in cell culture media. After cells are treated with various concentrations of test compound for 4 hours, cells are lysed using Quantigene 2.0 sample processing kit (#QS0100). C-Myc mRNA is detected using a QuantiGene 2.0 assay kit (#QS0009) with gene-specific probe to human C-Myc (#SA-50182) following the manufacturer's recommendations. Luminescene signals are read on Flexstation II microplate reader (Molecular Devices, Sunnyvale, Calif., USA).

Row | Compound | IC50 [1] [nM] | IC50 [2] [nM] | IC50 ([2]; Homo sapiens, MV4-11, 4 h) [nM]
1 | Cc1cc(-c2ccc3c(c2)N(C(C)c2ccccc2)C(=O)CC3)cn(C)c1=O (single isomer, unassigned) [Compound 12, 7-(1,5-dimethyl-6-oxo-3-pyridyl)-1-(1-phenylethyl)-3,4-dihydroquinolin-2-one] | 910 | 900 | –
2 | Cc1cc(-c2ccc3c(c2)N(C(C)c2ccccc2)C(=O)CC3)cn(C)c1=O (single isomer, unassigned) [Compound 13, 7-(1,5-dimethyl-6-oxo-3-pyridyl)-1-(1-phenylethyl)-3,4-dihydroquinolin-2-one] | 320 | 160 | –
3 | Cc1cc(-c2ccc3c(c2)N(CC2CCCCO2)C(=O)CC3)cn(C)c1=O (single isomer, unassigned) [Compound 14, 7-(1,5-dimethyl-6-oxo-3-pyridyl)-1-(tetrahydropyran-2-ylmethyl)-3,4-dihydroquinolin-2-one] | 3670 | – | 590
4 | Cc1cc(-c2ccc3c(c2)N(CC2CCCCO2)C(=O)CC3)cn(C)c1=O (single isomer, unassigned) [Compound 15, 7-(1,5-dimethyl-6-oxo-3-pyridyl)-1-(tetrahydropyran-2-ylmethyl)-3,4-dihydroquinolin-2-one] | 1530 | 600 | –
5 | COc1cc2c(cc1-c1cc(C)c(=O)n(C)c1)CCC(=O)N2C(C)c1ccccc1 (stereo not shown) [Compound 1, 6-(1,5-dimethyl-6-oxo-3-pyridyl)-7-methoxy-1-(1-phenylethyl)-3,4-dihydroquinolin-2-one] | – | – | 550
6 | COc1cc2c(cc1-c1cc(C)c(=O)n(C)c1)CCC(=O)N2C(C)c1ccccc1 (stereo not shown) [Compound 2, 6-(1,5-dimethyl-6-oxo-3-pyridyl)-7-methoxy-1-(1-phenylethyl)-3,4-dihydroquinolin-2-one] | – | 830 | –
7 | COc1cc2c(cc1-c1cc(C)c(=O)n(C)c1)CCC(=O)N2C(C)c1ccccn1 (stereo not shown) [Compound 3, 6-(1,5-dimethyl-6-oxo-3-pyridyl)-7-methoxy-1-[1-(2-pyridyl)ethyl]-3,4-dihydroquinolin-2-one] | – | – | 900
8 | COc1cc2c(cc1-c1cc(C)c(=O)n(C)c1)CCC(=O)N2C(C)c1ccccn1 (stereo not shown) [Compound 4, 6-(1,5-dimethyl-6-oxo-3-pyridyl)-7-methoxy-1-[1-(2-pyridyl)ethyl]-3,4-dihydroquinolin-2-one] | – | 830 | –
9 | Cc1cc(-c2ccc3c(c2)CCC(=O)N3Cc2ccccc2)cn(C)c1=O [Compound 5, 1-benzyl-6-(1,5-dimethyl-6-oxo-3-pyridyl)-3,4-dihydroquinolin-2-one] | – | – | 840
10 | COc1cc(-c2cc(C)c(=O)n(C)c2)cc2c1N(Cc1ccccc1)C(=O)CC2 [Compound 6, 1-benzyl-6-(1,5-dimethyl-6-oxo-1,6-dihydropyridin-3-yl)-8-methoxy-3,4-dihydroquinolin-2(1H)-one] | 2580 | – | 780
11 | Cc1cc(-c2ccc3c(c2)N(Cc2ccccc2)C(=O)CC3)cn(C)c1=O [Compound 7, 1-benzyl-7-(1,5-dimethyl-6-oxo-3-pyridyl)-3,4-dihydroquinolin-2-one] | 740 | – | 260
12 | Cc1cc(-c2ccc3c(c2)N(CCOC(F)(F)F)C(=O)CC3)cn(C)c1=O [Compound 8, 7-(1,5-dimethyl-6-oxo-3-pyridyl)-1-[2-(trifluoromethoxy)ethyl]-3,4-dihydroquinolin-2-one] | 940 | – | 820
13 | Cc1cc(-c2ccc3c(c2)N(Cc2ccc(F)cc2)C(=O)CC3)cn(C)c1=O [Compound 9, 7-(1,5-dimethyl-6-oxo-3-pyridyl)-1-[(4-fluorophenyl)methyl]-3,4-dihydro-quinolin-2-one] | 700 | – | 570
14 | Cc1cc(-c2ccc3c(c2)N(Cc2ccccn2)C(=O)CC3)cn(C)c1=O [Compound 10, 7-(1,5-dimethyl-6-oxo-3-pyridyl)-1-(2-pyridylmethyl)-3,4-dihydroquinolin-2-one] | 420 | – | 540
15 | Cc1cc(-c2ccc3c(c2)N(CC2CC(F)(F)C2)C(=O)CC3)cn(C)c1=O [Compound 11, 1-[(3,3-difluorocyclobutyl)methyl]-7-(1,5-dimethyl-6-oxo-3-pyridyl)-3,4-di hydroquinolin-2-one] | 860 | – | 870
16 | Cc1cc(-c2ccc3c(c2)OCC(=O)N3Cc2ccccc2)cn(C)c1=O [Compound 16, 4-benzyl-7-(1,5-dimethyl-6-oxo-3-pyridyl)-1,4-benzoxazin-3-one] | 1580 | – | 600
17 | Cc1cc(-c2ccc3c(c2)N(Cc2ccccc2)C(=O)CO3)cn(C)c1=O [Compound 17, 4-benzyl-6-(1,5-dimethyl-6-oxo-3-pyridyl)-1,4-benzoxazin-3-one] | 460 | – | 96
18 | Cc1cc(-c2ccc3c(c2)N(Cc2ccccn2)C(=O)CO3)cn(C)c1=O [Compound 18, 6-(1,5-dimethyl-6-oxo-3-pyridyl)-4-(2-pyridylmethyl)-1,4-benzoxazin-3-one] | 580 | – | 860
19 | Cc1cc(-c2ccc3c(c2)N(CC2CC(F)(F)C2)C(=O)CO3)cn(C)c1=O [Compound 19, 4-[(3,3-difluorocyclobutyl)methyl]-6-(1,5-dimethyl-6-oxo-3-pyridyl)-1,4-benzoxazin-3-one] | 810 | – | 750
20 | Cc1cc(-c2ccc3c(c2)N(CCOC(F)(F)F)C(=O)CO3)cn(C)c1=O [Compound 20, 6-(1,5-dimethyl-6-oxo-3-pyridyl)-4-[2-(trifluoromethoxy)ethyl]-1,4-benzoxazin-3-one] | 880 | – | 500
21 | Cc1cc(-c2cc(C)c(=O)n(C)c2)cc2c1N(Cc1ccccc1)C(=O)CC2 [Compound 21, 1-Benzyl-6-(1,5-dimethyl-6-oxo-1,6-dihydropyridin-3-yl)-8-methyl-3,4-dihydroquinolin-2(1H)-one] | – | – | 810
22 | Cc1cc(-c2cc(Cl)c3c(c2)CCC(=O)N3Cc2ccccc2)cn(C)c1=O [Compound 22, 1-benzyl-8-chloro-6-(1,5-dimethyl-6-oxo-1,6-dihydropyridin-3-yl)-3,4-dihydroquinolin-2(1H)-one] | – | – | 840
